Laboratory results from ChEMBL document CHEMBL4007472, “Identification of novel TACE inhibitors compatible with topical application” (Bioorg Med Chem Lett, 2017).
In brackets after ≈: the same amount, converted by molar mass.

Legend:
[1] = target: T1, Disintegrin and metalloproteinase domain-containing protein 17 (Homo sapiens, UniProt P78536); assay: Inhibition of TACE (unknown origin)
[2] = target: T1, Disintegrin and metalloproteinase domain-containing protein 17; assay: Inhibition of TACE (unknown origin) by cell based assay; details: read-out: pIC50 (converted)
[3] = target: T1, Disintegrin and metalloproteinase domain-containing protein 17; assay: Inhibition of TACE in NHEK assessed as reduction in LPS/TPA-stimulated TNFalpha production preincubated for 1 hr followed by LPS/TPA stimulation for 24 hrs by HTRF assay
[4] = Stability in human liver microsomes assessed as parent compound remaining at 1 uM after 15 mins by LC-MS/MS analysis; type: ADME, microsome; details: read-out: Stability
[5] = target: T1, Disintegrin and metalloproteinase domain-containing protein 17; assay: Inhibition of recombinant human TACE catalytic domain using Mca-Pro-Leu-Ala-Gln-Ala-Val-Dpa-Arg-Ser-Ser-Ser-Arg-NH2 as substrate after 2 hrs by fluorescence assay
[6] = target: T1, Disintegrin and metalloproteinase domain-containing protein 17; assay: Inhibition of TACE in human PBMC assessed as inhibition of LPS-stimulated TNFalpha production
[7] = target: Disintegrin and metalloproteinase domain-containing protein 17 (Sus scrofa, UniProt O77636); assay: Inhibition of porcine spleen TACE using Mca-Pro-LeuAla-Gln-Ala-Val-Dpa-Arg-Ser-Ser-Ser-[…]-NH2 as substrate by fluorescence assay
[8] = Aqueous solubility of the compound; type: physicochemical
[9] = target: T1, Disintegrin and metalloproteinase domain-containing protein 17; assay: Inhibition of recombinant TACE catalytic domain (unknown origin) using Abz-LAQAVRSSSR-Dpa as substrate preincubated for 10 mins followed by substrate addition measured after 10 mins by FRET assay
[10] = target: Disintegrin and metalloproteinase domain-containing protein 17 (Mus musculus, UniProt Q9Z0F8); assay: Inhibition of TACE in mouse RAW264.7 cells assessed as inhibition of LPS-stimulated TNFalpha production pretreated for 1 hr followed by LPS stimulation for 4 hrs by ELISA; type: cell-based
Disintegrin and metalloproteinase domain-containing protein 17 (Mus musculus, UniProt Q9Z0F8), sequence (Q9Z0F8 whole entry, the tested form may be a part): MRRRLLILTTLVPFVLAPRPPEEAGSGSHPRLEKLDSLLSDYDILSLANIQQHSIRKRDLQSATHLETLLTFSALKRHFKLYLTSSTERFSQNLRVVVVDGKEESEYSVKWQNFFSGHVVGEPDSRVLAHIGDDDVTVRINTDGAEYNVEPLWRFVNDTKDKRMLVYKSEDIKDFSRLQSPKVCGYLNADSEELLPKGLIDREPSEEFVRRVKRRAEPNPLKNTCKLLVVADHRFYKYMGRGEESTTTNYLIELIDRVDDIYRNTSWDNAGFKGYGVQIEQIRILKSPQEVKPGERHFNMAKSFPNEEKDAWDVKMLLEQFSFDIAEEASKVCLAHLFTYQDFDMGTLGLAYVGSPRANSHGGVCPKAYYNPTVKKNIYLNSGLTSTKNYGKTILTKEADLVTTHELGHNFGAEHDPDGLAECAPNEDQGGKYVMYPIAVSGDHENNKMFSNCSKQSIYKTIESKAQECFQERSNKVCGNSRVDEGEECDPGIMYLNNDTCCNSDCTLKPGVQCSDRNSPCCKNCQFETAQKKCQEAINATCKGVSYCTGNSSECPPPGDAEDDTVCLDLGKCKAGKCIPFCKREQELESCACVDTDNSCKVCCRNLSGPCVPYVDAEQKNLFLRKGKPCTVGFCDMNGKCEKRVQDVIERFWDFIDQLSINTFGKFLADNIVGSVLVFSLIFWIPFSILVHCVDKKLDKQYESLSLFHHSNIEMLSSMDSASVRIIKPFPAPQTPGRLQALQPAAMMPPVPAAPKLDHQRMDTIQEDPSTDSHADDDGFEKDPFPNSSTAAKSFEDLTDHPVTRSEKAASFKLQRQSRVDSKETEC

Disintegrin and metalloproteinase domain-containing protein 17 (Sus scrofa, UniProt O77636), sequence (O77636 whole entry, the tested form may be a part): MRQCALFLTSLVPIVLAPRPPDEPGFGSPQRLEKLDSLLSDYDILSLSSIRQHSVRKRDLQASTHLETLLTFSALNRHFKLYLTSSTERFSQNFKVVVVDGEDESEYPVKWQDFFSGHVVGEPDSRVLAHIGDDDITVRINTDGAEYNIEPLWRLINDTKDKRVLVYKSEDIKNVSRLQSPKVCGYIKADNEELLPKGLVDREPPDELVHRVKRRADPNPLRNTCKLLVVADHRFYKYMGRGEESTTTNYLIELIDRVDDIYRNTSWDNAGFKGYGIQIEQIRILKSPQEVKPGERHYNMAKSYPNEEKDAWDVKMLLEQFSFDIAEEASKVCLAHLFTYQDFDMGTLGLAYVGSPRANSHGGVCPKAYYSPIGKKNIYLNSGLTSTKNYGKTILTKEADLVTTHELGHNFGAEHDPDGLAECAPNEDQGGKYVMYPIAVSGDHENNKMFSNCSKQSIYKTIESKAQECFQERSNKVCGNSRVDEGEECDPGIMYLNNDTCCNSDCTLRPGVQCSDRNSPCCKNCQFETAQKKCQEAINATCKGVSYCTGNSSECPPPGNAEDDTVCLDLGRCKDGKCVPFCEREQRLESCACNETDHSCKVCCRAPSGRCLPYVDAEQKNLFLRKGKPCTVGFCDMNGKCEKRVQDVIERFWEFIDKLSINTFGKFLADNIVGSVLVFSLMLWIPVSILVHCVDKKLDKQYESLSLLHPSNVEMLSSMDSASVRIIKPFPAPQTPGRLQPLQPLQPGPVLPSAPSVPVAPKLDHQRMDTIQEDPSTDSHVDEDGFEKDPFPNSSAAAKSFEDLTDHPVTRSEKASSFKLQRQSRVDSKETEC
T1 sequence (P78536 whole entry, the tested form may be a part): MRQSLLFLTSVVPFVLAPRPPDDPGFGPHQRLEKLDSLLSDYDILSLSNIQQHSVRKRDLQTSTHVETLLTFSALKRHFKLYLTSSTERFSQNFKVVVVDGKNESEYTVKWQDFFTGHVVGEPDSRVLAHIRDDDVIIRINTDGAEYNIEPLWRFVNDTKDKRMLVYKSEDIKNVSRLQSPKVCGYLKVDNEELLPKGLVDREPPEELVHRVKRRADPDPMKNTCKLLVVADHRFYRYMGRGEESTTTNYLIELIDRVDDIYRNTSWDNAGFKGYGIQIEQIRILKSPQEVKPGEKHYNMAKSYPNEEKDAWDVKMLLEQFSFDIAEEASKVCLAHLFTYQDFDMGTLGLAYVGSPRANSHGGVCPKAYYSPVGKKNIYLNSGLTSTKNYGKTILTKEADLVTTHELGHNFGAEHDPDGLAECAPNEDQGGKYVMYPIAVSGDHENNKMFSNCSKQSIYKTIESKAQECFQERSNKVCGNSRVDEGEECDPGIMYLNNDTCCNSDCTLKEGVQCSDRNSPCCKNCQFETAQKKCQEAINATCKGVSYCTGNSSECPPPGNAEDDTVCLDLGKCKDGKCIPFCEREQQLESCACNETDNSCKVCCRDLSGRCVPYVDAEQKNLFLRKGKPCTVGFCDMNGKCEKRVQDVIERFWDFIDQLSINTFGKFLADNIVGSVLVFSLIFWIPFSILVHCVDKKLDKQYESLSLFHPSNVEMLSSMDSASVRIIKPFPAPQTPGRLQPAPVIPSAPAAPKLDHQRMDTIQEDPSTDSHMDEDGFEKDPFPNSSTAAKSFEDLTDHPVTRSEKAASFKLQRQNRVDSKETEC

SMILES | IC50 [5] | IC50 [6] | IC50 [7] | further results
CNC(=O)[C@@H]1Cc2ccc(cc2)OCCCC[C@H](C(=O)NO)[C@@H](CCCc2ccc(Cl)cc2)C(=O)N1 |  |  |  | IC50 [1]: 3.16 nM; IC50 [2]: 398 nM
CNC(=O)[C@@H]1Cc2ccc(cc2)OCCCC[C@H](C(=O)NO)[C@@H](CCCc2cc(C(F)(F)F)cc(C(F)(F)F)c2)C(=O)N1 |  |  |  | IC50 [1]: 31.6 nM; IC50 [2]: 316 nM
Cc1cc(COc2ccc(S(=O)(=O)N3CCN(C4CCC4)C(C(=O)NO)C3)cc2)c2c(n1)CCCC2 (configuration not stated) | 150 nM |  |  | IC50 [3]: > 10000 nM; remaining at […], 1 µM [4]: 54%
C[C@H](C(=O)NO)N1CCNc2cc(Oc3ccc([N+](=O)[O-])cc3)ccc2S1 |  | 1200 nM | 11 nM | 
C[C@H](C(=O)NO)N1CCNc2cc(OCc3cc(Cl)cc(Cl)c3)ccc2S1 |  | 940 nM | 153 nM | 
CCOc1cc(COc2ccc3c(c2)NCCN([C@H](CCC(=O)OC)C(=O)NO)S3)cc(OCC)c1 |  | 6200 nM | 242 nM | 
CC(C)C[C@H](C(=O)NO)N1CCNc2cc(O)ccc2S1 |  | 9500 nM | 89 nM | 
Cc1cc(COc2ccc(S(=O)(=O)N3CCN(S(C)(=O)=O)C(C(=O)NO)C3)cc2)c2c(n1)CCCC2 (configuration not stated) | 29 nM |  |  | remaining at […], 1 µM [4]: 88%
C[C@H](C(=O)NO)N1CCNc2cc(Oc3ccc(C(F)(F)F)cc3)ccc2S1 |  | 840 nM | 758 nM | 
Cc1cc(COc2ccc(S(=O)(=O)NC[C@@H](C(=O)NO)N3CCCCC3)cc2)c2c(n1)CCCC2 | 6 nM |  |  | IC50 [3]: 60 nM
CCOc1cc(COc2ccc3c(c2)NCCN([C@H](CCCC(=O)OC)C(=O)NO)S3)cc(OCC)c1 |  | 1100 nM | 13 nM | 
Cc1cc(COc2ccc(S(=O)(=O)N3CCN(C(=O)C4CC4)C(C(=O)NO)C3)cc2)c2c(n1)CCCC2 (configuration not stated) | 13 nM |  |  | IC50 [3]: 3100 nM; solubility [8]: 58 µM (≈ 30.7 µg/mL); remaining at […], 1 µM [4]: 88%
CC(C)C[C@H](C(=O)NO)N1CCNc2cc(OCc3ccccc3)ccc2S1 |  | 350 nM | 177 nM | 
Cc1cc(COc2ccc(S(=O)(=O)N3CCN(C)C(C(=O)NO)C3)cc2)c2c(n1)CCCC2 (configuration not stated) | 160 nM |  |  | remaining at […], 1 µM [4]: 80%
Cc1cc(COc2ccc3c(c2)NCCN([C@H](C)C(=O)NO)S3)cc(C)n1 |  | 2900 nM | 544 nM | 
COc1cc(COc2ccc3c(c2)NCCN([C@H](CCCCNS(C)(=O)=O)C(=O)NO)S3)cc(OC)c1 |  | 1900 nM | 5 nM | 
COC(=O)CCC[C@H](C(=O)NO)N1CCNc2cc(OCc3cc(OC)cc(OC)c3)ccc2S1 |  | 900 nM | 10 nM | 
COc1cc(COc2ccc3c(c2)NCCN([C@H](CC(C)C)C(=O)NO)S3)cc(OC)c1 |  | 5400 nM | 17 nM | 

SMILES | IC50 [5] | IC50 [6] | IC50 [7] | further results
Cc1nc(COc2ccc3c(c2)NCCN([C@@H](C(=O)NO)C(C)C)S3)sc1C |  | 24500 nM | 290 nM | 
C[C@H](C(=O)NO)N1CCNc2cc(Oc3cccc([N+](=O)[O-])c3)ccc2S1 |  | 470 nM | 129 nM | 
COC(=O)CC[C@H](C(=O)NO)N1CCNc2cc(OCc3cc(OC)cc(OC)c3)ccc2S1 |  | 7200 nM | 177 nM | 
COc1cc(COc2ccc3c(c2)NCCN([C@H](C)C(=O)NO)S3)cc(OC)c1 |  | 770 nM | 27 nM | 
Cc1cc(COc2ccc(S(=O)(=O)N3CCN(C(=O)C4CCC4)C(C(=O)NO)C3)cc2)c2c(n1)CCCC2 (configuration not stated) | 19 nM |  |  | remaining at […], 1 µM [4]: 83%
CCOc1cc(COc2ccc3c(c2)NCCN([C@@H](C(=O)NO)C(C)C)S3)cc(OCC)c1 |  | 8200 nM | 51 nM | 
COc1cc(COc2ccc3c(c2)NCCN([C@@H](C(=O)NO)C(C)C)S3)cc(OC)c1 |  | 4000 nM | 10 nM | 
CCOc1cc(COc2ccc3c(c2)NCCN([C@H](C)C(=O)NO)S3)cc(OCC)c1 |  | 4500 nM | 81 nM | 
CNC(=O)[C@@H]1Cc2ccc(cc2)OCCCC[C@H](C(=O)NO)[C@@H](CCCc2cc(OC)ccc2OC)C(=O)N1 |  |  |  | IC50 [1]: 6.31 nM; IC50 [2]: 3980 nM
Cc1cc(COc2ccc(S(=O)(=O)N[C@@H]3CNC[C@@H]3C(=O)NO)cc2)c2ccccc2n1 (relative stereo) |  |  |  | IC50 ([9]; read-out: IC50): 4.7 nM; IC50 ([10]; read-out: IC50): 90 nM
Cc1cc(COc2ccc(S(=O)(=O)N(C)[C@@H]3COC[C@@H]3C(=O)NO)cc2)c2ccccc2n1 (relative stereo) |  |  |  | IC50 ([9]; read-out: pIC50 (converted)): 1.26 nM; IC50 ([10]; read-out: IC50): 930 nM
Cc1cc(COc2ccc(S(=O)(=O)N(C)[C@H]3CCCC[C@@H]3C(=O)NO)cc2)c2ccccc2n1 (relative stereo) |  |  |  | IC50 ([9]; read-out: IC50): 1.4 nM; IC50 ([10]; read-out: IC50): 911 nM
Cc1cc(COc2ccc(S(=O)(=O)N[C@@H]3CCC[C@@H]3C(=O)NO)cc2)c2ccccc2n1 (relative stereo) |  |  |  | IC50 ([9]; read-out: pIC50 (converted)): 0.631 nM; IC50 ([10]; read-out: IC50): 9 to 11 nM; IC50 ([10]; read-out: pIC50 (converted)): 10 nM
CCNC(=O)N1C[C@H](C(=O)NO)[C@H](NS(=O)(=O)c2ccc(OCc3cc(C)nc4ccccc34)cc2)C1 (relative stereo) |  |  |  | IC50 ([9]; read-out: pIC50 (converted)): 1.26 nM; IC50 ([10]; read-out: IC50): 51 nM
Cc1cc(COc2ccc(S(=O)(=O)N[C@@H]3CN(C(=O)OC(C)(C)C)C[C@@H]3C(=O)NO)cc2)c2ccccc2n1 (relative stereo) |  |  |  | IC50 ([9]; read-out: IC50): 0.6 nM; IC50 ([10]; read-out: IC50): 38 nM
Cc1cc(COc2ccc(S(=O)(=O)N[C@H]3CCN(C(=O)NC(C)(C)C)C[C@H]3C(=O)NO)cc2)c2ccccc2n1 (relative stereo) |  |  |  | IC50 ([9]; read-out: IC50): 0.6 nM; IC50 ([10]; read-out: IC50): 30 nM
Cc1cc(COc2ccc(S(=O)(=O)N(C)C3C(C(=O)NO)[C@@H]4CC[C@H]3O4)cc2)c2ccccc2n1 (relative stereo; form 1) |  |  |  | IC50 ([9]; read-out: IC50): 43 nM; IC50 ([10]; read-out: IC50): 250 nM
Cc1cc(COc2ccc(S(=O)(=O)N(C)C3C(C(=O)NO)[C@@H]4CC[C@H]3O4)cc2)c2ccccc2n1 (relative stereo; form 2) |  |  |  | IC50 ([9]; read-out: IC50): 2 nM; IC50 ([10]; read-out: IC50): 18 nM

Now from value to molecule, other results behind:

IC50 [5] | IC50 [6] | IC50 [7] | SMILES | further results
60 nM |  |  | Cc1cc(COc2ccc(S(=O)(=O)N3CCCC(C(=O)NO)C3)cc2)c2ccccc2n1 (configuration not stated) | IC50 [3]: > 10000 nM; solubility [8]: < 1 µM
35 nM |  |  | Cc1cc(COc2ccc(S(=O)(=O)N3CCC(C)(C(=O)NO)C3)cc2)c2ccccc2n1 (configuration not stated) | IC50 [3]: > 10000 nM; solubility [8]: 41 µM (≈ 18.7 µg/mL)
26 nM |  |  | Cc1cc(COc2ccc(S(=O)(=O)N3CCN(C(=O)C(C)C)C(C(=O)NO)C3)cc2)c2c(n1)CCCC2 (configuration not stated) | remaining at […], 1 µM [4]: 91%
23 nM |  |  | Cc1cc(COc2ccc(S(=O)(=O)N3CCN(C(=O)CC(C)C)C(C(=O)NO)C3)cc2)c2c(n1)CCCC2 (configuration not stated) | remaining at […], 1 µM [4]: 64%
210 nM |  |  | Cc1cc(COc2ccc(S(=O)(=O)N3CCC(C(=O)NO)C3)cc2)c2c(n1)CCCC2 (configuration not stated) | IC50 [3]: > 10000 nM
350 nM |  |  | CC(=O)N1C[C@@H](S(=O)(=O)c2ccc(OCc3cc(C)nc4c3CCCC4)cc2)C[C@H]1C(=O)NO | IC50 [3]: > 10000 nM
16 nM |  |  | Cc1cc(COc2ccc(S(=O)(=O)N3CCN(C(=O)c4ccccc4)C(C(=O)NO)C3)cc2)c2c(n1)CCCC2 (configuration not stated) | remaining at […], 1 µM [4]: 85%
40 nM |  |  | COC(=O)N1CCN(S(=O)(=O)c2ccc(OCc3cc(C)nc4c3CCCC4)cc2)CC1C(=O)NO (configuration not stated) | remaining at […], 1 µM [4]: 100%
84 nM |  |  | Cc1cc(COc2ccc(S(=O)(=O)N3Cc4ccccc4C(C(=O)NO)C3)cc2)c2ccccc2n1 (configuration not stated) | IC50 [3]: > 10000 nM
23 nM |  |  | CCC(=O)N1CCN(S(=O)(=O)c2ccc(OCc3cc(C)nc4c3CCCC4)cc2)CC1C(=O)NO (configuration not stated) | remaining at […], 1 µM [4]: 100%
14 nM |  |  | CC(=O)N1CCN(S(=O)(=O)c2ccc(OCc3cc(C)nc4c3CCCC4)cc2)CC1C(=O)NO (configuration not stated) | IC50 [3]: 9100 nM; solubility [8]: 61 µM (≈ 30.7 µg/mL); remaining at […], 1 µM [4]: 92%
